# “Also recorded” adds a separate entry of the source.
# Key:
# [1] = MTT cytotoxicity assay, LoVo; assay type: cell-based, human; conditions: human, LoVo colon cancer cells; LoVo colon cancer, 48 h, MTT
# Description: (§1) The cytotoxic activity of natural products against mammalian cells is an important point in the search for active compounds with biological activity. […] In order to confirm the selective and potent anti-trypanosomal activity of ML-2-2 and ML-2-3, we examined their cytotoxicity in a panel of human cell lines including two human fibroblastic and 8 human cancer-derived cell lines. Cells were seeded in 96-well microplates and incubated with ML-2-2 and ML-2-3 for 48 h at 37° C. in a 5% CO2 humidified incubator. The viabilities of cells were determined with the MTT (3-(4,5-dimethylthiazol-2-yl)-2-5-diphenyltetrazolium bromide) assay. The selectivity index (SI) was determined using the following equation: IC50 against human cells/IC50 against T. brucei. The IC50 values of ML-2-3 were higher than those of ML-2-2 in all the cell lines examined. […] The SI of ML-2-2 indicates values below 1.00 in most cell lines. On the other hand, SI values of ML-2-3 were much higher than those of ML-2-2 in all tested cell lines.
# LoVo (colon cancer) = assay: MTT cytotoxicity assay, LoVo; assay type: cell-based, human; conditions: IC50 against LoVo / IC50 against T. brucei
# Description: as §1
# Trypanosoma cells [2] = assay: Cell cycle assay (FACS); assay type: cell-based, Trypanosoma brucei brucei
# Description: (§2) The GUTat 3.1 strain of the bloodstream forms of T. b. brucei parasites was used for this study. Parasites were cultured in vitro according to the conditions established by Yabu et al, 1998.
# (§3) Parasites were used when they reached a confluent concentration of 1×10^6 parasites/ml. Estimation of parasitemia was done with the Neubauer's counting chamber. Parasites were diluted to a concentration of 3×10^5 parasites/ml with HMI-9 medium and used for the various experiments.
# This assay was performed to investigate any abnormal change in the parasites' cell cycle which may be caused by extracts/compounds with trypanocidal effect. […] The parasites were collected and transferred into 15 ml centrifuge tubes and centrifuged at 1700 rpm for 10 min, after which the supernatant was discarded. The pelleted parasites were re-suspended in 5 ml PBS solution and vortexed to form a suspension. The parasite suspension was centrifuged at 1700 rpm for 10 min and the supernatant discarded. The pelleted parasites were re-suspended in 1.5 ml of PBS and vortexed thoroughly before adding 3.5 ml absolute EtOH gradually to a final volume of 5 ml 70% EtOH. The parasites were then fixed at −20° C. for 1 h. The cell suspension was then centrifuged at 1700 rpm for 10 min and the supernatant discarded. Pelleted parasites were re-suspended in 200 μl of Guava Cell Cycle reagent, which has Propidium Iodide as its main constituent and incubated at room temperature for 30 min. The solution was transferred to wells of 96-well plate. The well contents were then subjected to FACS analysis using the Millipore guava easyCyte 5HT FACS machine, for the sorting of parasites according to the manufacturer's instructions.
# [3] = system: HF-19 (normal fibroblast); assay: MTT cytotoxicity assay, HF-19; assay type: cell-based, human
# Description: as §1
# [4] = MTT cytotoxicity assay, HF-19; assay type: cell-based, human; conditions: human, HF-19 normal fibroblast cells; HF-19 normal fibroblast, 48 h, MTT
# Description: as §1
# [5] = system: NB1RGB (normal fibroblast); assay: MTT cytotoxicity assay, NB1RGB; assay type: cell-based, human; conditions: IC50 against NB1RGB / IC50 against T. brucei
# Description: as §1
# [6] = MTT cytotoxicity assay, NB1RGB; assay type: cell-based, human; conditions: human, NB1RGB normal fibroblast cells; NB1RGB normal fibroblast, 48 h, MTT
# Description: as §1
# [7] = MTT cytotoxicity assay, U937; assay type: cell-based, human; conditions: human, U937 leukemia cells; U937 leukemia, 48 h, MTT
# Description: as §1
# U937 (leukemia) = assay: MTT cytotoxicity assay, U937; assay type: cell-based, human; conditions: IC50 against U937 / IC50 against T. brucei
# Description: as §1
# Trypanosoma cells [8] = assay: Nexin apoptosis assay (FACS); assay type: cell-based, Trypanosoma brucei brucei
# Description: as §2, §3
# This assay was performed to detect both Phosphatidylserine (PS) signal and fracture of nuclear membraneas markers of apoptosis. Seeding and incubation of parasites with plant materials (extracts, fractions and compounds) were done under the same conditions in Alamar Blue assay. […] The contents of the wells were then subjected to FACS analysis using, the Millipore guava easyCyte 5HT FACS machine for the sorting and estimation of apoptotic parasites according to the manufacturer's instructions.
# Caco2 (colon cancer) = assay: MTT cytotoxicity assay, Caco2; assay type: cell-based, human; conditions: IC50 against Caco2 / IC50 against T. brucei
# Description: as §1
# [9] = MTT cytotoxicity assay, Caco2; assay type: cell-based, human; conditions: human, Caco2 colon cancer cells; Caco2 colon cancer, 48 h, MTT
# Description: as §1
# Trypanosoma cells [10] = assay: Multi-caspase apoptosis assay (FACS); assay type: cell-based, Trypanosoma brucei brucei; conditions: 5 μM
# Description: as §2, §3
# This assay was performed to investigate multi-caspase signals as markers of apoptosis. Seeding and incubation of parasites were as for the other experiments. After 24 hours of incubation, 10% Caspase Reagent Working Solution was added to each well. The plate was incubated for 1 h at 37° C. under 5% CO2 in air. The plate was washed twice with 1× apoptosis wash buffer, centrifuged for 5-7 min and the supernatant aspirated off. Two hundred microlitres (200 μl) working solution of Caspase 7-AAD was added to each well and mixed thoroughly to re-suspend parasites. The plate was incubated for 10 min at room temperature and subjected to FACS analysis using, the Millipore guava easyCyte 5HT FACS machine for the sorting and estimation of apoptotic parasites according to the manufacturer's instructions.
structure (smiles),measurement,setting,value
"COc1cc(/C=C2/C(=O)O[C@]34C=C[C@@H]5C(C(=O)O)=CO[C@H](O[C@@H]23)[C@@H]54)ccc1O [ML-2-3, (3aS,4aR,4a^1S,7aS,9aS,3E)-3-(4-hydroxy-3-methoxybenzylidene)-2-oxo-2,3,3a,4a,4a^1,7a-hexahydro-1,4,5-trioxadicyclopenta[a,hi]indene-7-carboxylic acid]",IC50 at 48 h,[1],30.4 µM
same,SI (selectivity index),LoVo (colon cancer),8.10
same,cells with low DNA content (sub-G1 phase),Trypanosoma cells [2]; 15 μM,a large proportion of cells with low DNA content were detected as sub-G1 phase
same,numbers of cells in the G2 and M phase of cell cycle,"Trypanosoma cells [2]; four times of IC50: 15 μM ML-2-3, 5 μM ML-2-2, 24 hours",significant decrease; also recorded: caused alteration of G2/M phase
same,cytotoxicity (in words),"[3]; HF-19, highest assayed dose",non-toxic at the highest assayed doses
same,SI (selectivity index),[3]; IC50 against HF-19 / IC50 against T. brucei,>13.33
same,IC50 at 48 h,[4],> 50 µM
same,SI (selectivity index),[5],9.96
same,IC50 at 48 h,[6],37.4 µM
same,IC50 at 48 h,[7],12 µM
same,SI (selectivity index),U937 (leukemia),3.21
same,proportion of cells at early stage of apoptosis,"Trypanosoma cells [8]; 5 μM, 3 hours incubation",2.5%
same,proportion of cells at early stage of apoptosis,"Trypanosoma cells [8]; 5 μM, 12 hours of incubation",about 10%
same,incubation time at which significant increase in proportion of late stage apoptotic cells was observed,"Trypanosoma cells [8]; 5 μM, time course 0, 3, 6, 9 and 12 hours",around 6 hours
same,induction of apoptosis,"Trypanosoma cells [8]; 6.25 μM, 24-hour incubation",induced strong apoptosis
same,early stage apoptotic cells,"Trypanosoma cells [8]; 6.25 μM, 24-hour incubation, negative control 0.2%",7.8%
same,late stages apoptotic cells,"Trypanosoma cells [8]; 6.25 μM, 24-hour incubation, negative control none",4.4%
same,induction of apoptosis in Trypanosoma cells,Trypanosoma cells [8]; same concentration (6 μM),strongly induced apoptosis
same,SI (selectivity index),Caco2 (colon cancer),11.88
same,IC50 at 48 h,[9],44.6 µM
same,late-apoptosis cells,Trypanosoma cells [10]; control cells 0.40%,4.2%
same,mid-apoptosis cells,Trypanosoma cells [10]; control cells 1.05%,7%
